Values joined by “and” are separate entries in the source; they are usually repeats but may differ in a detail not shown here. Equal values may be shown once.
SMILES | melting point
C1=CCC=C1 [Cyclopenta-1,3-diene] | -97.2 °C
C[C@]12CC[C@@H]3c4ccc(O)cc4CC[C@H]3[C@@H]1CC[C@@H]2O [estradiol] | 176 °C
O=C(OC1OC(=O)c2ccccc21)c1ccccc1 (stereo unspecified) [3-oxo-1,3-dihydro-2-benzofuran-1-yl benzoate] | 128 °C
CCOC(=O)/C=C/c1ccccc1 [ethyl cinnamate] | 7 °C
O=C(O)c1ccccc1[N+](=O)[O-] [2-nitrobenzoic acid] | 148 °C
Clc1cc(N2CCCC2)ncn1 [4-chloro-6-(1-pyrrolidinyl)pyrimidine] | 97 °C
Cc1ccc(C(=O)Cl)cc1 [p-toluoyl chloride] | -2 °C
NC(=O)c1ccc(N)cc1 [4-aminobenzamide] | 183 °C
O=C(O)C(F)(F)F [Trifluoroacetic acid] | -15 °C
Cc1ccc(-n2ncccc2=O)cc1 [2-(4-Methylphenyl)pyridazin-3(2H)-one] | 97.8 °C
O=C(O)C1(C(F)(F)F)CCCCC1 [1-(trifluoromethyl)cyclohexanecarboxylic acid] | 70 °C
C=CCO [allyl alcohol] | -129 °C
N[C@@H](Cc1cc(I)c(Oc2cc(I)c(O)c(I)c2)c(I)c1)C(=O)O [Levothyroxine] | 236 °C
COc1cc(C(=O)O)cc(OC)c1O [syringic acid] | 207 °C
O=C(O)Cc1cccc([N+](=O)[O-])c1 [3-nitrophenylacetic acid] | 119 °C
O=C(CCl)Oc1ccc([N+](=O)[O-])cc1 [4-nitrophenyl chloroacetate] | 94 °C
Nc1cc(C(=O)O)cc(C(F)(F)F)c1 [3-amino-5-(trifluoromethyl)benzoic acid] | 144 °C
Nc1cccc(Cl)c1Cl [2,3-dichloroaniline] | 24 °C
CC(=O)N(C1=NC(=O)/C(=C/c2cc(C)n(-c3ccccc3)c2C)S1)c1ccccc1 [OSM-S-49] | 238 °C
CC(C)NCC(O)COc1cccc2[nH]ccc12 (stereo unspecified) [pindolol] | 170 °C
CCC1(O)CCC2(C)C(CCC3C4CCC(=O)C4(C)CCC32)C1 (stereo unspecified) [3-ethyl-3-hydroxyandrostan-17-one] | 115 °C
O=[N+]([O-])c1ccc(/C=C/c2ccccc2[N+](=O)[O-])cc1 [1-nitro-2-[(E)-2-(4-nitrophenyl)ethenyl]benzene] | 139 °C
NC(=O)c1ccccc1O [salicylamide] | 142 °C
CCCCCCP(=O)(O)O [N-hexylphosphonic acid] | 109 °C
Cc1cc(C)nc(NS(=O)(=O)c2ccc(N)cc2)n1 [Sulfamethazine] | 198 °C
Cc1ccc2c(c1)-c1c(cc3c(c1-c1ccccc1)C(=O)CC(C)(C)C3)CO2 | 199 °C

SMILES | melting point
O=C(O)c1ccc([N+](=O)[O-])cc1 [p-nitrobenzoic_acid] | 241 °C
Cc1cc(C)nc(NS(=O)(=O)c2ccc(N)cc2)n1 [sulfamethazine] | 176 °C
CC(C)(C)NCC(O)COc1cccc2c1C[C@H](O)[C@H](O)C2 (stereo partly specified) [nadolol] | 125 °C
O=CCc1ccccc1 [phenylacetaldehyde] | -10 °C
O=C(O)c1ccc(Br)c(C(=O)O)c1 [4-bromoisophthalic acid] | 299 °C
Nc1ccc(N2CCOCC2)cc1 [4-(4-morpholinyl)aniline] | 131 °C
Cc1ccco1 [2-methylfuran] | -89 °C
COc1ccc(C(C)=CC(=O)O)c(OC)c1 [Hepadial] | 149 °C
N#Cc1ccc(N=C=S)cc1 [4-cyanophenyl isothiocyanate] | 120 °C
O=C(O)c1ccccc1/N=N/c1ccc(O)cc1 [2-(4-hydroxyphenyl-azo)benzoic acid] | 206 °C
O=Cc1ccc(B(O)O)cc1C(F)(F)F [4-formyl-3-(trifluoromethyl)benzeneboronic acid] | 201 °C
CCCCCCCC#N [octanenitrile] | -45 °C
CC(=O)CCc1ccc(CCC(C)=O)cc1 [4,4'-benzene-1,4-diyldibutan-2-one] | 56 °C
CCOC(=O)c1cc(C(=O)OCC)c([N+](=O)[O-])cc1[N+](=O)[O-] [diethyl 4,6-dinitrobenzene-1,3-dicarboxylate] | 124 °C
CC1(C)C(=O)N(Cl)C(=O)N1Cl [1,3-Dichloro-5,5-dimethylimidazolidine-2,4-dione] | 135 °C
O=C(O)/C=C/c1ccc(B(O)O)cc1 [4-(2-carboxyvinyl)benzeneboronic acid] | 193 °C
CCC(C)(C)Cl [2-chloro-2-methylbutane] | -73 °C
CC(C)c1ccccc1B(O)O [2-isopropylbenzeneboronic acid] | 86 °C
C=COCC [Ethoxyethene] | -115 °C
O=[N+]([O-])c1ccccc1O [2-nitrophenol] | 44.8 °C and 44.5 °C and 44 °C
Clc1ccc(Cl)cc1 [1,4-Dichlorobenzene] | 53 °C
O=C(O)CCc1ccccc1 [3-phenylpropionic acid] | 48.5 °C
Cc1ccc(C(C)C)cc1O [5-Isopropyl-2-methylphenol] | 2 °C
CCOB(OCC)OCC [triethyl borate] | -85 °C
Cc1cn([C@H]2C[C@H](O)[C@@H](CO)O2)c(=O)[nH]c1=O [Thymidine] | 188 °C
CC(C)(C)NCC(O)COc1cccc2c1C[C@H](O)[C@H](O)C2 (stereo partly specified) [Nadolol] | 130 °C

SMILES | melting point
Cc1cc(C=O)c(C)n1-c1ccc(C(F)(F)F)cc1 [OSM-S-34] | 86 °C
CC12CCC3C(CCC4CC(O)CCC43C)C1CCC2=O (stereo unspecified) [3-Hydroxyandrostan-17-one] | 174 °C
Clc1ccc(cc1)NC3=CC4=Nc2ccccc2N(C4=C/C3=NC(C)C)c5ccc(Cl)cc5 [clofazimine] | 211 °C
Oc1ccc(Cl)c(O)c1 [4-chlororesorcinol] | 107 °C
CN(C)CCCN [N,N-dimethyl-1,3-propanediamine] | -70 °C
O=C(CC(=O)C(F)(F)F)c1cccs1 [1-(2-thenoyl)-3,3,3-trifluoroacetone] | 43 °C
CCC1(c2ccccc2)C(=O)NCNC1=O [primidone] | 282 °C
C=CCCCC [1-hexene] | -140 °C
O=C1[C@H]2C[C@@H]3C[C@@H](C[C@H]1C3)C2 [Adamantanone] | 270 °C
O=Cc1ccc([N+](=O)[O-])cc1 [p-nitrobenzaldehyde] | 108 °C
COc1cc(OC)c(C=O)c(OC)c1 [2,4,6-trimethoxybenzaldehyde] | 120 °C
ClC(Cl)Cl [trichloromethane] | -63 °C
CC1=CC=C(C)C2=C(C)C=CC(C)=C1C2 [2,5,7,10-tetramethylbicyclo[4.4.1]undeca-1,3,5,7,9-pentaene] | 72 °C
COC(=O)c1ccccc1C(=O)OC [Dimethyl phthalate] | 2 °C
CCCC(C)O (stereo unspecified) [Pentan-2-ol] | -50 °C
O=C=N/C1CCCCC1 [Isocyanatocyclohexane] | -80 °C
O=C(O)c1cc(-c2ccc(F)cc2F)ccc1O [diflunisal] | 210 °C
O=C1CC[C@@H](C(=O)O)N1 [5-Oxo-L-proline] | 162 °C
COc1ccc(O)cc1 [4-methoxyphenol] | 56 °C
N#CCc1cccc(C(F)(F)F)c1Cl [2-chloro-3-(trifluoromethyl)phenylacetonitrile] | 58 °C
CCCCN [1-aminobutane] | -49 °C
CC(=O)NS(=O)(=O)c1ccc(N)cc1 [sulfacetamide] | 183 °C
Cc1c(N(C)C)c(=O)n(-c2ccccc2)n1C [Aminopyrine] | 108 °C
CCCCOC(=O)[C@@H](C)Oc1ccc(Oc2ccc(C(F)(F)F)cn2)cc1 | 5 °C
OCC(CO)(CO)CO [pentaerythritol] | 262 °C
OC/C(Br)=C(\Br)CO [(2E)-2,3-Dibromobut-2-ene-1,4-diol] | 113 °C

SMILES | melting point
CCOC(=O)c1cc2c(oc1=O)-c1ccc(OC)cc1CC2 | 142 °C
NCCCCC(=O)O [5-aminovaleric acid] | 157 °C
CC1=C(/C=C/C(C)=C/C=C/C(C)=C/C=C/C=C(C)/C=C/C=C(C)/C=C/C2=C(C)CCCC2(C)C)C(C)(C)CCC1 [B-carotene] | 183 °C (2×) and 180 °C
O=C(O)C1=CCCCC1 [1-cyclohexene-1-carboxylic acid] | 32 °C
O=S(=O)(Cl)c1ccc(F)cc1 [4-fluorobenzenesulfonyl chloride] | 37 °C
COc1ccc2cc(C(C)COC(C)=O)ccc2c1 (stereo unspecified) [Naproxol acetate] | 61 °C
CC(=O)Cl [Acetyl chloride] | -112 °C
O=C(OC(=O)/C(=C/c1ccccc1)Cc1ccccc1)/C(=C/c1ccccc1)Cc1ccccc1 [(2E)-2-benzyl-3-phenylprop-2-enoic anhydride] | 108 °C
BrCCCBr [1,3-dibromopropane] | -34 °C
Oc1ccc(I)cc1 [p-iodophenol] | 94 °C
Cl/C(Cl)=C/C3C(C(=O)OC(C#N)c2cccc(Oc1ccccc1)c2)C3(C)C (stereo unspecified) | 68.5 °C
O=C(Cl)c1ccco1 [2-furoyl chloride] | -1 °C
O=C(O)c1cc(Cl)ccc1Cl [2,5-dichlorobenzoic_acid] | 156 °C
Cc1ccccc1N [o-Toluidine] | -16 °C
O=CNc1ccccc1 [formanilide] | 47 °C
Cc1c(C#N)c2ccccc2n1O [1-hydroxy-2-methyl-1H-indole-3-carbonitrile] | 159 °C
N#CCc1ccc(CC#N)cc1 [1,4-phenylenediacetonitrile] | 96 °C
CCCCOc1cc(C(=O)NCCN(CC)CC)c2ccccc2n1 [dibucaine] | 64.5 °C
Cc1ccccc1NC=O [2-methylformanilide] | 59 °C
COc1ccc(C=O)c(OC)c1OC [2,3,4-trimethoxybenzaldehyde] | 40 °C
CCCCCC(=O)OC [Methyl hexanoate] | -71 °C
NS(=O)(=O)c1cc(C(=O)O)c(NCc2ccco2)cc1Cl [Furosemide] | 206 °C
Nc1ccc2c(c1)OCCCO2 [3,4-dihydro-2h-1,5-benzodioxepin-7-amine] | 79 °C
